Assay results: ChEMBL document CHEMBL6096689, “Structure-Guided Development of ClpP Agonists with Potent Therapeutic Activities against Staphylococcus aureus Infection” (J Med Chem, 2025)
pEC50: −log10 of the molar value. ≈ marks a conversion by molar mass, not a printed value.

Columns and labels:
[1] = target: T1, ATP-dependent Clp protease proteolytic subunit (Staphylococcus aureus (strain NCTC 8325), UniProt Q2G036); assay: Agonist activity at Staphylococcus aureus ClpP extracted from Escherichia coli BL21 (DE3) cells using alpha-casein as substrate assessed as substrate hydrolysis preincubated for 15 mins followed by substrate addition and measured after 2 hrs by SDS-PAGE analysis
T1 sequence (Q2G036 whole entry): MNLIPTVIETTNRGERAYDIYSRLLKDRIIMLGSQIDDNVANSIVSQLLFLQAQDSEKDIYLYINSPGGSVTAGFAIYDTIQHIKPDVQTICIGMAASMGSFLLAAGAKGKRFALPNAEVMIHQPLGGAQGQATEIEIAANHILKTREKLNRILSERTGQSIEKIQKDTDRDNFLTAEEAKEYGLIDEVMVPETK

[2] = tested on: Staphylococcus aureus; assay: microbe, parasite or virus in culture; type: functional; conditions: Newman, time 18 hrs
Description: Antibacterial activity against Staphylococcus aureus Newman assessed as inhibition of visible growth of bacteria incubated for 18 hrs by absorbance based analysis

[3] = tested on: Staphylococcus aureus; assay: microbe, parasite or virus in culture; type: functional; conditions: USA300, time 18 hrs
Description: Antibacterial activity against methicillin-resistant Staphylococcus aureus USA300 assessed as inhibition of visible growth of bacteria incubated for 18 hrs by absorbance based analysis

[4] = tested on: Staphylococcus aureus; assay: microbe, parasite or virus in culture; type: functional; conditions: NRS-1, time 18 hrs
Description: Antibacterial activity against methicillin-resistant Staphylococcus aureus NRS-1 assessed as inhibition of visible growth of bacteria incubated for 18 hrs by absorbance based analysis

[5] = tested on: Staphylococcus aureus; assay: microbe, parasite or virus in culture; type: functional; conditions: NRS-70, time 18 hrs
Description: Antibacterial activity against methicillin-resistant Staphylococcus aureus NRS-70 assessed as inhibition of visible growth of bacteria incubated for 18 hrs by absorbance based analysis

[6] = tested on: Staphylococcus aureus; assay: microbe, parasite or virus in culture; type: functional; conditions: NRS-108, time 18 hrs
Description: Antibacterial activity against methicillin-resistant Staphylococcus aureus NRS-108 assessed as inhibition of visible growth of bacteria incubated for 18 hrs by absorbance based analysis

[7] = tested on: Staphylococcus aureus; assay: microbe, parasite or virus in culture; type: functional; conditions: NRS-271, time 18 hrs
Description: Antibacterial activity against methicillin-resistant Staphylococcus aureus NRS-271 assessed as inhibition of visible growth of bacteria incubated for 18 hrs by absorbance based analysis

[8] = tested on: Staphylococcus aureus; assay: microbe, parasite or virus in culture; type: functional; conditions: time 18 hrs
Description: Antibacterial activity against multidrug-resistant Staphylococcus aureus clinical isolate XJ009 assessed as inhibition of visible growth of bacteria incubated for 18 hrs by absorbance based analysis

[9] = tested on: Staphylococcus aureus; assay: microbe, parasite or virus in culture; type: functional; conditions: time 18 hrs; remark: listed apart in the source
Description: Antibacterial activity against multidrug-resistant Staphylococcus aureus clinical isolate XJ025 assessed as inhibition of visible growth of bacteria incubated for 18 hrs by absorbance based analysis

[10] = tested on: Staphylococcus aureus; assay: microbe, parasite or virus in culture; type: functional; conditions: time 18 hrs; remark: listed apart in the source
Description: Antibacterial activity against multidrug-resistant Staphylococcus aureus clinical isolate XJ049 assessed as inhibition of visible growth of bacteria incubated for 18 hrs by absorbance based analysis

[11] = tested on: Staphylococcus aureus; assay: microbe, parasite or virus in culture; type: functional; conditions: time 18 hrs; remark: listed apart in the source
Description: Antibacterial activity against multidrug-resistant Staphylococcus aureus clinical isolate XJ051 assessed as inhibition of visible growth of bacteria incubated for 18 hrs by absorbance based analysis

[12] = tested on: Staphylococcus aureus; assay: microbe, parasite or virus in culture; type: functional; conditions: time 18 hrs; remark: listed apart in the source
Description: Antibacterial activity against multidrug-resistant Staphylococcus aureus clinical isolate XJ052 assessed as inhibition of visible growth of bacteria incubated for 18 hrs by absorbance based analysis

CC(C)C[C@H]1C(=O)N(Cc2cccc3ccccc23)C[C@@H]2N(C(=O)NCCCC(F)(F)F)CCC(=O)N21 showed a pEC50 [1] of 5.89 and an MIC [2] of 4 µg/mL (≈ 7.71 µM).
CC[C@H](C)[C@H]1C(=O)N(Cc2cccc3ccccc23)C[C@@H]2N(C(=O)NCCc3ccco3)CCC(=O)N12 was tested, and the pEC50 [1] was 5.28 and the MIC [2] was greater than 128 µg/mL.
CCCC(C)NC(=O)N1CCC(=O)N2[C@@H]([C@@H](C)CC)C(=O)N(Cc3cccc4ccccc34)C[C@H]12 (some centres not stated) was tested, and the pEC50 [1] was 5.28 and the MIC [2] was 8 µg/mL (≈ 16.7 µM).
CC[C@H]1OC(=O)[C@H](C)[C@@H](O[C@H]2C[C@@](C)(OC)[C@@H](O)[C@H](C)O2)[C@H](C)[C@@H](O[C@@H]2O[C@H](C)C[C@H](N(C)C)[C@H]2O)[C@](C)(O)C[C@@H](C)C(=O)[C@H](C)[C@@H](O)[C@]1(C)O [ERYTHROMYCIN] showed an MIC [2] of 0.13 µg/mL (≈ 0.177 µM), an MIC [3] of 8 µg/mL (≈ 10.9 µM) and an MIC [4] greater than 128 µg/mL. It also gave an MIC [5] greater than 128 µg/mL, an MIC [6] greater than 128 µg/mL and an MIC [7] of 0.25 µg/mL (≈ 0.341 µM). For the same compound, the MIC [8] was greater than 128 µg/mL, the MIC [9] was 1 µg/mL (≈ 1.36 µM) and the MIC [10] was greater than 128 µg/mL. The MIC [11] was 8 µg/mL (≈ 10.9 µM) and the MIC [12] was greater than 128 µg/mL.
CSCC[C@H]1C(=O)N(Cc2cccc3ccccc23)C[C@@H]2N(C(=O)NCc3ccccc3)CCC(=O)N21 showed a pEC50 [1] of 5.51 and an MIC [2] of 8 µg/mL (≈ 15.5 µM).
Compound [N-]=[N+]=NCCC[C@H]1C(=O)N(Cc2cccc3ccccc23)C[C@@H]2N(C(=O)NCCCC(F)(F)F)CCC(=O)N21 has a pEC50 [1] of 5.82 and an MIC [2] of 2 µg/mL (≈ 3.67 µM).
CC[C@H](C)[C@H]1C(=O)N(Cc2cc(Cl)cc(Cl)c2)C[C@@H]2N(C(=O)NCCCC(F)(F)F)CCC(=O)N12 gave a pEC50 [1] of 6.11 and an MIC [2] of 16 µg/mL (≈ 29.8 µM).
CCCCNC(=O)N1CCC(=O)N2[C@@H]([C@@H](C)CC)C(=O)N(Cc3cccc4ccccc34)C[C@H]12 was tested, and the pEC50 [1] was 5.80 and the MIC [2] was 2 µg/mL (≈ 4.3 µM).
CC[C@H](C)[C@H]1C(=O)N(Cc2ccc(Br)c3ccccc23)C[C@@H]2N(C(=O)NCCCC(F)(F)F)CCC(=O)N12 showed a pEC50 [1] of 5.71 and an MIC [2] of 4 µg/mL (≈ 6.69 µM).
For CC[C@H](C)[C@H]1C(=O)N(Cc2cccc3ccccc23)C[C@@H]2N(C(=O)NCCCCCCl)CCC(=O)N12, the pEC50 [1] was less than 4.40 and the MIC [2] was greater than 128 µg/mL.
C[C@H]1C(=O)N(Cc2cccc3ccccc23)C[C@@H]2N(C(=O)NCc3ccccc3)CCC(=O)N21 showed a pEC50 [1] of 5.60 and an MIC [2] of 16 µg/mL (≈ 35 µM).
For CC[C@H](C)[C@H]1C(=O)N(Cc2cccc3ccccc23)C[C@@H]2N(C(=O)NCCC(=O)OC)CCC(=O)N12, the pEC50 [1] was 4.76 and the MIC [2] was 128 µg/mL (≈ 259 µM).
In the case of O=C1[C@H](CC2CC2)N2C(=O)CCN(C(=O)NCCCC(F)(F)F)[C@H]2CN1Cc1cccc2ccccc12, the pEC50 [1] was 5.46 and the MIC [2] was 4 µg/mL (≈ 7.74 µM).
Compound O=C1[C@H](Cc2ccccc2)N2C(=O)CCN(C(=O)NCc3ccccc3)[C@H]2CN1Cc1cccc2ccccc12 has a pEC50 [1] of 5.54 and an MIC [2] of 8 µg/mL (≈ 15 µM).
O=C1[C@H](CC2CCCCC2)N2C(=O)CCN(C(=O)NCCCC(F)(F)F)[C@H]2CN1Cc1cccc2ccccc12 showed a pEC50 [1] of 5.80 and an MIC [2] of 2 µg/mL (≈ 3.58 µM).
For C#CC[C@H]1C(=O)N(Cc2cccc3ccccc23)C[C@@H]2N(C(=O)NCCCC(F)(F)F)CCC(=O)N21, the pEC50 [1] was 5.72 and the MIC [2] was 4 µg/mL (≈ 7.99 µM).
For CC[C@H](C)[C@H]1C(=O)N(Cc2cccc3ccccc23)C[C@@H]2N(C(=O)NCc3ccccc3)CCC(=O)N12, the pEC50 [1] was 6.05 and the MIC [2] was 4 µg/mL (≈ 8.02 µM).
With CCC(C)CNC(=O)N1CCC(=O)N2[C@@H]([C@@H](C)CC)C(=O)N(Cc3cccc4ccccc34)C[C@H]12 (some centres not stated) the pEC50 [1] was 5.74 and the MIC [2] was 2 µg/mL (≈ 4.18 µM).
Compound CC[C@H](C)[C@H]1C(=O)N(Cc2ccc(Cl)cc2Cl)C[C@@H]2N(C(=O)NCCCC(F)(F)F)CCC(=O)N12 has a pEC50 [1] of 6.00 and an MIC [2] of 32 µg/mL (≈ 59.5 µM).
O=C1[C@H](Cc2ccc(O)cc2)N2C(=O)CCN(C(=O)NCc3ccccc3)[C@H]2CN1Cc1cccc2ccccc12 showed a pEC50 [1] of 5.96 and an MIC [2] of 16 µg/mL (≈ 29.2 µM).
With CC[C@H](C)[C@H]1C(=O)N(Cc2cccc3ccccc23)C[C@@H]2N(C(=O)NCC(C)C)CCC(=O)N12 the pEC50 [1] was 5.42 and the MIC [2] was 8 µg/mL (≈ 17.2 µM).
Compound O=C1[C@H](CC2CCC2)N2C(=O)CCN(C(=O)NCCCC(F)(F)F)[C@H]2CN1Cc1cccc2ccccc12 has a pEC50 [1] of 5.70 and an MIC [2] of 4 µg/mL (≈ 7.54 µM).
CC[C@H](C)[C@H]1C(=O)N(Cc2cccc3ccccc23)C[C@@H]2N(C(=O)NCCCCCl)CCC(=O)N12 gave a pEC50 [1] of 5.96 and an MIC [2] of 4 µg/mL (≈ 8.02 µM).
For CC[C@H](C)[C@H]1C(=O)N(Cc2ccc(F)c3ccccc23)C[C@@H]2N(C(=O)NCCCC(F)(F)F)CCC(=O)N12, the pEC50 [1] was 6.00 and the MIC [2] was 0.5 µg/mL (≈ 0.932 µM).
Compound CC[C@H](C)[C@H]1C(=O)N(Cc2cccc3ccccc23)C[C@@H]2N(C(=O)NCCCCl)CCC(=O)N12 has a pEC50 [1] of 5.89 and an MIC [2] of 4 µg/mL (≈ 8.25 µM).
C=CC[C@H]1C(=O)N(Cc2cccc3ccccc23)C[C@@H]2N(C(=O)NCCCC(F)(F)F)CCC(=O)N21 was tested, and the pEC50 [1] was 5.85 and the MIC [2] was 4 µg/mL (≈ 7.96 µM).
CC[C@H](C)[C@H]1C(=O)N(Cc2cccc3ccccc23)C[C@@H]2N(C(=O)NCCC(C)C)CCC(=O)N12 showed a pEC50 [1] of 5.72 and an MIC [2] of 2 µg/mL (≈ 4.18 µM).
CC[C@H](C)[C@H]1C(=O)N(Cc2cccc3ccccc23)C[C@@H]2N(C(=O)NCCC3CC3)CCC(=O)N12 showed a pEC50 [1] of 5.72 and an MIC [2] of 2 µg/mL (≈ 4.2 µM).
Compound CC[C@H](C)[C@H]1C(=O)N(Cc2cccc3ccccc23)C[C@@H]2N(C(=O)NCCC(C)=O)CCC(=O)N12 has a pEC50 [1] of 4.58 and an MIC [2] greater than 128 µg/mL.
CC(C)[C@H]1C(=O)N(Cc2cccc3ccccc23)C[C@@H]2N(C(=O)NCCCC(F)(F)F)CCC(=O)N12 showed a pEC50 [1] of 5.80 and an MIC [2] of 2 µg/mL (≈ 3.96 µM).
Compound CC[C@H](C)[C@H]1C(=O)N(Cc2ccc(C)c3ccccc23)C[C@@H]2N(C(=O)NCCCC(F)(F)F)CCC(=O)N12 has a pEC50 [1] of 5.82 and an MIC [2] of 0.25 µg/mL (≈ 0.469 µM).
With CC(C)C[C@H]1C(=O)N(Cc2cccc3ccccc23)C[C@@H]2N(C(=O)NCc3ccccc3)CCC(=O)N21 the pEC50 [1] was 5.92 and the MIC [2] was 16 µg/mL (≈ 32.1 µM).
CC[C@H](C)[C@H]1C(=O)N(Cc2cccc3ccccc23)C[C@@H]2N(C(=O)NCCCC(F)(F)F)CCC(=O)N12 showed a pEC50 [1] of 6.14 and an MIC [2] of 1 µg/mL (≈ 1.93 µM).
CC[C@@H](C)[C@H]1C(=O)N(Cc2cccc3ccccc23)C[C@@H]2N(C(=O)NCc3ccc(Br)cc3)CCC(=O)N12 gave a pEC50 [1] of 5.92 and an MIC [2] of 4 µg/mL (≈ 6.93 µM).
O=C1[C@H](CO)N2C(=O)CCN(C(=O)NCc3ccccc3)[C@H]2CN1Cc1cccc2ccccc12 was tested, and the pEC50 [1] was 5.35 and the MIC [2] was 64 µg/mL (≈ 135 µM).
CC[C@H](C)[C@H]1C(=O)N(Cc2cccc3ccccc23)C[C@@H]2N(C(=O)NCC(C)(C)C)CCC(=O)N12 gave a pEC50 [1] of 5.31 and an MIC [2] of 32 µg/mL (≈ 66.9 µM).
CCCNC(=O)N1CCC(=O)N2[C@@H]([C@@H](C)CC)C(=O)N(Cc3cccc4ccccc34)C[C@H]12 showed a pEC50 [1] of 5.66 and an MIC [2] of 16 µg/mL (≈ 35.5 µM).
CC1(C)S[C@@H]2[C@H](NC(=O)[C@H](N)c3ccccc3)C(=O)N2[C@H]1C(=O)O [AMPICILLIN] was tested, and the MIC [2] was 0.25 µg/mL (≈ 0.715 µM), the MIC [4] was 32 µg/mL (≈ 91.6 µM) and the MIC [5] was 4 µg/mL (≈ 11.4 µM). The MIC [6] was 4 µg/mL (≈ 11.4 µM), the MIC [7] was 32 µg/mL (≈ 91.6 µM) and the MIC [8] was 64 µg/mL (≈ 183 µM). It also gave an MIC [9] of 64 µg/mL (≈ 183 µM), an MIC [10] of 64 µg/mL (≈ 183 µM) and an MIC [11] of 128 µg/mL (≈ 366 µM). For the same compound, the MIC [12] was 64 µg/mL (≈ 183 µM).
CC[C@H](C)[C@H]1C(=O)N(Cc2cccc3ccccc23)C[C@@H]2N(C(=O)NCCC3CCOC3)CCC(=O)N12 (some centres not stated) showed a pEC50 [1] of 5.16 and an MIC [2] of 128 µg/mL (≈ 253 µM).
Compound O=C1[C@H](CC2CCCC2)N2C(=O)CCN(C(=O)NCCCC(F)(F)F)[C@H]2CN1Cc1cccc2ccccc12 has a pEC50 [1] of 5.66 and an MIC [2] of 4 µg/mL (≈ 7.34 µM).
